One assay has as its system E. amylovora. The conditions noted are these: 24 h, 10 μM.
The next assay deals with X. citri. Briefly: Bacterial growth inhibition by OD600 absorbance, X. citri. The note with it: peptide 10 μM, 24 hours at 30° C., OD 600 nm. The assay is classed as cell-based, X. citri subsp. citri (ATCC 49118). On the procedure: (§1) Antimicrobial activity of antimicrobial peptides was tested against the agricultural microbial pests A. tumefaciens, E. amylovora, E. coli, and X. citri, using OD absorbance measurement to detect bacterial growth.
(§2) Antimicrobial peptides were synthesized using solid phase peptide synthesis method and resuspended in 10% DMSO to a 1 mM stock concentration. The stock solution was aliquoted in cryovials and stored at −80° C.
(§3) An aliquot of 198 μl of the bacterial culture was added to each well in a 96-well plate and 2 μl of a 1 mM peptide stock solution was added to each well, for a final treatment concentration of 10 μM of a given peptide. Media only wells were included to control for contamination. The positive controls were 50 μg/ml oxytetracycline hydrochloride and 500 μg/ml streptomycin sulfate. A 0.1% DMSO treatment was included as a negative control.
(§4) An initial absorbance reading of the bacterial suspensions was taken at 600 nm. Then, the bacteria were grown in an incubator at 30° C. (A. tumefaciens, E. amylovora, X. citri) or 37° C. (E. coli) for 24 hours, after which the final absorbance reading was measured. Using the initial and final absorbance reading compared to negative and positive controls, the percent inhibition of the bacterial strain by given peptide treatment was determined.

Another assay relates to A. tumefaciens. The conditions noted are these: 24 h, 10 μM.
In the next assay the test system is E. coli. The assay is described as follows: Bacterial growth inhibition by OD600 absorbance, E. coli. The note with it: peptide 10 μM, 24 hours at 37° C., OD 600 nm. The assay is classed as cell-based, E. coli (DH5-alpha). On the procedure: as §1, §2, §3, §4

No end group written: not given here.

Take FFHHIKRGIKHVGKTIHRLVTG [compound 38]: the “growth inhibition, E. amylovora” value in the assay with E. amylovora is 100.00%. Moreover, in the assay on X. citri, the “growth inhibition, X. citri” value came to 100.00%. For the same molecule, in the assay with A. tumefaciens, the “growth inhibition, A. tumefaciens” value is less than 90%. Also, the “growth inhibition, E. coli” value in the assay on E. coli is less than 90%.
As for “DLWNSIKDMAAAAGRAALNAVTGMVNQ [compound 29]”, the “growth inhibition, E. amylovora” value in the assay with E. amylovora is listed as less than 90%. In addition, the “growth inhibition, X. citri” value in the assay on X. citri was less than 90%. For the same molecule, in the assay on A. tumefaciens, the “growth inhibition, A. tumefaciens” value was less than 90%. The “growth inhibition, E. coli” value in the assay on E. coli is less than 90%.
For AAKAWLKLWAKAA [compound 135], the “growth inhibition, E. amylovora” value with E. amylovora is reported as less than 90%. Besides, the “growth inhibition, X. citri” value with X. citri was less than 90%. Besides, in the assay on A. tumefaciens, the “growth inhibition, A. tumefaciens” value is reported as less than 90%. Besides, the “growth inhibition, E. coli” value in the assay on E. coli is listed as less than 90%.
On to “ALKSLLKTLSKAKAAKLKTLLKALSK [compound 30]”, for which the “growth inhibition, E. amylovora” value in the assay with E. amylovora is recorded as 100.00%. In addition, in the assay on X. citri, the “growth inhibition, X. citri” value is 100.00%. For the same molecule, the “growth inhibition, A. tumefaciens” value in the assay with A. tumefaciens stood at 100.00%. Further, in the assay with E. coli, the “growth inhibition, E. coli” value is 98.52%.
As for KWKLFKKIPLAKKF [compound 100], the “growth inhibition, E. amylovora” value with E. amylovora is less than 90%. In the assay on X. citri, the “growth inhibition, X. citri” value is listed as less than 90%. In the assay with A. tumefaciens, the “growth inhibition, A. tumefaciens” value was less than 90%. Besides, the “growth inhibition, E. coli” value in the assay on E. coli is less than 90%.
Take KKVVFKVKFK [compound 142]: the “growth inhibition, E. amylovora” value in the assay with E. amylovora was less than 90%. In addition, the “growth inhibition, X. citri” value in the assay with X. citri was less than 90%. In the assay with A. tumefaciens, the “growth inhibition, A. tumefaciens” value is listed as less than 90%. Also, in the assay with E. coli, the “growth inhibition, E. coli” value is given as less than 90%.
As for ILKKLLKKVKSI [compound 136], the “growth inhibition, E. amylovora” value in the assay with E. amylovora is on record as less than 90%. Besides, in the assay on X. citri, the “growth inhibition, X. citri” value is reported as less than 90%. Moreover, in the assay on A. tumefaciens, the “growth inhibition, A. tumefaciens” value was less than 90%. The “growth inhibition, E. coli” value in the assay with E. coli is listed as less than 90%.
Take `CC(C)C[C@H](NC(=O)[C@H](CCCCN)NC(=O)[C@H](C)NC(=O)[C@H](CC(C)C)NC(=O)[C@H](CCCCN)NC(=O)[C@H](CCCCN)NC(=O)[C@H](C)NC(=O)[C@H](CC(C)C)NC(=O)[C@H](CCCCN)NC(=O)[C@H](C)NC(=O)[C@H](CC(C)C)NC(=O)[C@H](CCCCN)NC(=O)[C@H](Cc1c[nH]cn1)NC(=O)[C@H](C)NC(=O)[C@@H](N)CC(=O)O)C(=O)N[C@@H](C)C(=O)N[C@@H](CCCCN)C(=O)O` [compound 97]: the “growth inhibition, E. amylovora” value in the assay on E. amylovora is given as less than 90%. Besides, the “growth inhibition, X. citri” value in the assay with X. citri is reported as less than 90%. In addition, the “growth inhibition, A. tumefaciens” value in the assay on A. tumefaciens is reported as less than 90%. In addition, the “growth inhibition, E. coli” value in the assay on E. coli is less than 90%.
As for KKAAAAAAAAAAAAWAAAAAAKKKK [compound 70], in the assay on E. amylovora, the “growth inhibition, E. amylovora” value is reported as less than 90%. Besides, the “growth inhibition, X. citri” value in the assay with X. citri is listed as less than 90%. Moreover, the “growth inhibition, A. tumefaciens” value in the assay on A. tumefaciens is given as less than 90%. In the assay on E. coli, the “growth inhibition, E. coli” value is on record as less than 90%.
Turning to VRLRIRVRVIRK [compound 118], the “growth inhibition, E. amylovora” value in the assay with E. amylovora was 100.00%. For the same molecule, the “growth inhibition, X. citri” value with X. citri was 100.00%. Further, the “growth inhibition, A. tumefaciens” value with A. tumefaciens amounted to 100.00%. Moreover, in the assay on E. coli, the “growth inhibition, E. coli” value came out at 100.00%.
As to KIKWILKYWKWS [compound 106], in the assay on E. amylovora, the “growth inhibition, E. amylovora” value is less than 90%. Besides, the “growth inhibition, X. citri” value with X. citri was less than 90%. The “growth inhibition, A. tumefaciens” value in the assay with A. tumefaciens is less than 90%. For the same molecule, the “growth inhibition, E. coli” value in the assay with E. coli is less than 90%.
As for AKRLKKLAKKIWKWK [compound 92], in the assay with E. amylovora, the “growth inhibition, E. amylovora” value came out at 99.93%. In addition, in the assay on X. citri, the “growth inhibition, X. citri” value is recorded as less than 90%. For the same molecule, the “growth inhibition, A. tumefaciens” value in the assay on A. tumefaciens is recorded as 99.87%. In addition, in the assay on E. coli, the “growth inhibition, E. coli” value is on record as less than 90%.
Consider GWASSIGSILGKFAKGGAQAFLQPK [compound 44], for which, in the assay with E. amylovora, the “growth inhibition, E. amylovora” value was less than 90%. Further, the “growth inhibition, X. citri” value in the assay with X. citri is less than 90%. Moreover, the “growth inhibition, A. tumefaciens” value in the assay with A. tumefaciens is given as less than 90%. Further, the “growth inhibition, E. coli” value in the assay on E. coli is reported as less than 90%.
Regarding GIKFFLKKLKKHI [compound 115], the “growth inhibition, E. amylovora” value in the assay on E. amylovora is given as less than 90%. For the same molecule, in the assay with X. citri, the “growth inhibition, X. citri” value was determined as 100.00%. Moreover, the “growth inhibition, A. tumefaciens” value with A. tumefaciens was less than 90%. Further, the “growth inhibition, E. coli” value with E. coli is reported as less than 90%.
In the case of KLLKQWPIGKLLKKLLKKLLK [compound 42], in the assay on E. amylovora, the “growth inhibition, E. amylovora” value is less than 90%. Besides, in the assay on X. citri, the “growth inhibition, X. citri” value is reported as 100.00%. Besides, the “growth inhibition, A. tumefaciens” value in the assay with A. tumefaciens was 100.00%. Also, in the assay with E. coli, the “growth inhibition, E. coli” value is on record as 100.00%.
As to “SWLSKTAKKLENSAKKRISEGIAIAIQGGPR [compound 11]”, the “growth inhibition, E. amylovora” value with E. amylovora is 100.00%. In addition, the “growth inhibition, X. citri” value with X. citri amounted to 100.00%. Besides, the “growth inhibition, A. tumefaciens” value with A. tumefaciens was found to be 99.35%. In addition, the “growth inhibition, E. coli” value in the assay on E. coli came to 100.00%.
As to VKLYPVKLYP [compound 143], the “growth inhibition, E. amylovora” value in the assay on E. amylovora is less than 90%. Moreover, the “growth inhibition, X. citri” value in the assay on X. citri is reported as less than 90%. For the same molecule, the “growth inhibition, A. tumefaciens” value in the assay with A. tumefaciens is recorded as less than 90%. Moreover, the “growth inhibition, E. coli” value with E. coli is listed as less than 90%.
In the case of “ALWFTMLKKLGTMALHAGKAALGAAANTISQGTQ [compound 9]”, the “growth inhibition, E. amylovora” value with E. amylovora stood at 91.75%. Moreover, the “growth inhibition, X. citri” value in the assay on X. citri came to 100.00%. The “growth inhibition, A. tumefaciens” value in the assay on A. tumefaciens is reported as 99.90%. For the same molecule, the “growth inhibition, E. coli” value in the assay on E. coli is less than 90%.
The matching figures for FKKLKKLFSKLWNWK [compound 84]: 100.00%, less than 90%, 100.00% and 96.39%.
Consider GMWSKILGHLIR [compound 137], for which the “growth inhibition, E. amylovora” value with E. amylovora was found to be 100.00%. Besides, in the assay with X. citri, the “growth inhibition, X. citri” value is recorded as less than 90%. In addition, the “growth inhibition, A. tumefaciens” value in the assay on A. tumefaciens is given as less than 90%. Besides, the “growth inhibition, E. coli” value with E. coli is given as less than 90%.
On to KKIGIWIGIKK [compound 141], for which the “growth inhibition, E. amylovora” value in the assay on E. amylovora is reported as less than 90%. In addition, the “growth inhibition, X. citri” value in the assay with X. citri is recorded as less than 90%. Besides, the “growth inhibition, A. tumefaciens” value in the assay with A. tumefaciens is reported as less than 90%. In the assay on E. coli, the “growth inhibition, E. coli” value is recorded as less than 90%.
Turning to AKLKAYPLKAKLYP [compound 114], in the assay with E. amylovora, the “growth inhibition, E. amylovora” value is reported as less than 90%. For the same molecule, the “growth inhibition, X. citri” value in the assay on X. citri is listed as less than 90%. Also, the “growth inhibition, A. tumefaciens” value with A. tumefaciens was less than 90%. In addition, the “growth inhibition, E. coli” value in the assay on E. coli is reported as less than 90%.
As to ALWKKLLKKLLKSAKKLG [compound 77], the “growth inhibition, E. amylovora” value in the assay with E. amylovora amounted to 100.00%. The “growth inhibition, X. citri” value in the assay with X. citri is 100.00%. The “growth inhibition, A. tumefaciens” value in the assay with A. tumefaciens turned out to be 100.00%. In addition, the “growth inhibition, E. coli” value in the assay on E. coli was 100.00%.
Turning to KKKKKKAAAFAAAAAFAAWAAFAAA [compound 51], in the assay on E. amylovora, the “growth inhibition, E. amylovora” value is listed as less than 90%. The “growth inhibition, X. citri” value in the assay on X. citri is reported as less than 90%. Further, the “growth inhibition, A. tumefaciens” value in the assay with A. tumefaciens is less than 90%. In addition, in the assay on E. coli, the “growth inhibition, E. coli” value is less than 90%.
On to “GLWSKIKEVGKEAAKAAAKAAGKAALGAVSEAV [compound 16]”, for which the “growth inhibition, E. amylovora” value in the assay on E. amylovora was found to be 100.00%. In addition, the “growth inhibition, X. citri” value in the assay with X. citri turned out to be 100.00%. In addition, in the assay on A. tumefaciens, the “growth inhibition, A. tumefaciens” value was 100.00%. In the assay with E. coli, the “growth inhibition, E. coli” value was determined as 100.00%.
For VRVKVRVKVRVK [compound 131], in the assay on E. amylovora, the “growth inhibition, E. amylovora” value came out at 100.00%. The “growth inhibition, X. citri” value in the assay on X. citri is reported as less than 90%. The “growth inhibition, A. tumefaciens” value with A. tumefaciens is on record as less than 90%. Moreover, the “growth inhibition, E. coli” value with E. coli is recorded as 99.54%.
WKIKWKIKWKIK [compound 105]: in the assay on E. amylovora, the “growth inhibition, E. amylovora” value is less than 90%. The “growth inhibition, X. citri” value in the assay on X. citri is less than 90%. Besides, in the assay on A. tumefaciens, the “growth inhibition, A. tumefaciens” value was less than 90%. The “growth inhibition, E. coli” value in the assay with E. coli is less than 90%.
